Measured values reported in patent US10780090B2, “Heteroaryl compounds useful as inhibitors of SUMO activating enzyme” (Millennium Pharmaceuticals, Inc., priority 2014, dated 2020).

Biological target: recombinant human SAE enzyme (Homo sapiens (Human), UniProt Q9UBT2)
Assay: SAE HTRF enzyme assay
Type: biochemical
Details: for Percent Inhibition: SAE inhibition at compound concentration 0.111 μM; for IC50: SAE inhibition, class symbols, legend in nM
Procedure, shortened: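 Enzyme reaction: 50 mM HEPES pH 7.5, 5 mM MgCl2, 250 μM GSH, 0.05% BSA, 0.5 μM ATP, 0.01 μM Ubc9-GST, 0.125 μM Sumo-Flag, 0.11 nM SAE; 105 min, 24° C. Stop/detect, 2 h, then HTRF. % inh or IC50.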

Chain of recombinant human SAE enzyme (Q9UBT2 whole entry): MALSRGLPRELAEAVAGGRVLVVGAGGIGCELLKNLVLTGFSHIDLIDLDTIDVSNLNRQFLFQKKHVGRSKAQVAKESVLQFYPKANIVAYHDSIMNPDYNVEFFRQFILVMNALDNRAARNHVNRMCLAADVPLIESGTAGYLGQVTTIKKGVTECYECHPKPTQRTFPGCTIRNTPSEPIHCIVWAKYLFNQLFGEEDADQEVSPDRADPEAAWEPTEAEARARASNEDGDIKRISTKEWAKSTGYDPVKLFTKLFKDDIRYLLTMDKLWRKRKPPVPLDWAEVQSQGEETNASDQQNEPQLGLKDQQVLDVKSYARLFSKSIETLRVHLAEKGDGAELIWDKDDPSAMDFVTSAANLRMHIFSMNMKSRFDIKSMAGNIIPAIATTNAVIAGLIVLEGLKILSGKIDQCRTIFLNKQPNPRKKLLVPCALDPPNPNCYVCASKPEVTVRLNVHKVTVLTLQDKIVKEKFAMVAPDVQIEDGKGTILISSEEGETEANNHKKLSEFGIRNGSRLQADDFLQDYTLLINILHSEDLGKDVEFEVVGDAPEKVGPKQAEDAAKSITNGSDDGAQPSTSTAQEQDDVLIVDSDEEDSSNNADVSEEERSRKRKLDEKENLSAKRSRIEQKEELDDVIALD
Chain of recombinant human SAE enzyme (Q9UBE0 whole entry partner): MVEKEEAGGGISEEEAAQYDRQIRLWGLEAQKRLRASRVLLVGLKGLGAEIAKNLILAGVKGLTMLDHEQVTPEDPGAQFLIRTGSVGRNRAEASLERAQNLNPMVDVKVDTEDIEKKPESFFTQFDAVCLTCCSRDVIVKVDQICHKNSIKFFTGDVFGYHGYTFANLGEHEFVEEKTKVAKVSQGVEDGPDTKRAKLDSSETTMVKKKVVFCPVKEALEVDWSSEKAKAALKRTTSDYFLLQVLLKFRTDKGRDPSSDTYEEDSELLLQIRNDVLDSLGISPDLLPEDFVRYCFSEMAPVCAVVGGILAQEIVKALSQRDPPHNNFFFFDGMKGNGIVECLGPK

SMILES | Percent Inhibition [%] | IC50 [nM]
Cc1ccc2c(n1)C(c1cc(C(=O)c3cncnc3N[C@@H]3C[C@H](COS(N)(=O)=O)[C@@H](O)C3)sc1C)OCC2 (single isomer, unassigned) [I-291b, [(1R,2S,4R)-2-hydroxy-4-{[5-({5-methyl-4-[(8S)-2-methyl-5,8-dihydro-6H-pyrano[3,4-b]pyridin-8-yl]-2-thienyl}carbonyl)pyrimidin-4-yl]amino}cyclopentyl]methyl sulfamate or [(1R,2S,4R)-2-hydroxy-4-{[5-({5-methyl-4-[(8R)-2-methyl-5,8-dihydro-6H-pyrano[3,4-b]pyridin-8-yl]-2-thienyl}carbonyl)pyrimidin-4-yl]amino}cyclopentyl]methyl sulfamate] | 99 | < 10
Cc1sc(C(=O)c2cncnc2N[C@@H]2C[C@H](COS(N)(=O)=O)[C@@H](O)C2)cc1[C@H]1NCCc2ccccc21 (single isomer, unassigned) [I-292a, [(1R,2S,4R)-2-hydroxy-4-{[5-({5-methyl-4-[(1S)-1,2,3,4-tetrahydroisoquinolin-1-yl]-2-thienyl}carbonyl)pyrimidin-4-yl]amino}cyclopentyl]methyl sulfamate or [(1R,2S,4R)-2-hydroxy-4-{[5-({5-methyl-4-[(1R)-1,2,3,4-tetrahydroisoquinolin-1-yl]-2-thienyl}carbonyl)pyrimidin-4-yl]amino}cyclopentyl]methyl sulfamate] | 99 | < 10
Cc1sc(C(=O)c2cncnc2N[C@@H]2C[C@H](COS(N)(=O)=O)[C@@H](O)C2)cc1[C@H]1NCCc2ccccc21 (single isomer, unassigned) [I-292b, [(1R,2S,4R)-2-hydroxy-4-{[5-({5-methyl-4-[(1S)-1,2,3,4-tetrahydroisoquinolin-1-yl]-2-thienyl}carbonyl)pyrimidin-4-yl]amino}cyclopentyl]methyl sulfamate or [(1R,2S,4R)-2-hydroxy-4-{[5-({5-methyl-4-[(1R)-1,2,3,4-tetrahydroisoquinolin-1-yl]-2-thienyl}carbonyl)pyrimidin-4-yl]amino}cyclopentyl]methyl sulfamate] | 87 | 10 to 100
NS(=O)(=O)OC[C@H]1C[C@@H](Nc2ncncc2C(=O)c2cc([C@@H]3OCC(F)(F)c4ccccc43)cs2)C[C@@H]1O (single isomer, unassigned) [I-293a, [(1R,2S,4R)-4-{[5-({4-[(1R)-4,4-difluoro-3,4-dihydro-1H-isochromen-1-yl]-2-thienyl}carbonyl)pyrimidin-4-yl]amino}-2-hydroxycyclopentyl]methyl sulfamate or [(1R,2S,4R)-4-{[5-({4-[(1S)-4,4-difluoro-3,4-dihydro-1H-isochromen-1-yl]-2-thienyl}carbonyl)pyrimidin-4-yl]amino}-2-hydroxycyclopentyl]methyl sulfamate] | 57 | 10 to 100
NS(=O)(=O)OC[C@H]1C[C@@H](Nc2ncncc2C(=O)c2cc([C@@H]3OCC(F)(F)c4ccccc43)cs2)C[C@@H]1O (single isomer, unassigned) [I-293b, [(1R,2S,4R)-4-{[5-({4-[(1R)-4,4-difluoro-3,4-dihydro-1H-isochromen-1-yl]-2-thienyl}carbonyl)pyrimidin-4-yl]amino}-2-hydroxycyclopentyl]methyl sulfamate or [(1R,2S,4R)-4-{[5-({4-[(1S)-4,4-difluoro-3,4-dihydro-1H-isochromen-1-yl]-2-thienyl}carbonyl)pyrimidin-4-yl]amino}-2-hydroxycyclopentyl]methyl sulfamate] | 98 | < 10
NS(=O)(=O)OC[C@H]1C[C@@H](Nc2ncncc2C(=O)c2cc([C@@H]3OCCc4ccc(F)cc43)c(Cl)s2)C[C@@H]1O (single isomer, unassigned) [I-294, [(1R,2S,4R)-4-[[5-[5-chloro-4-[(1R)-7-fluoroisochroman-1-yl]thiophene-2-carbonyl]pyrimidin-4-yl]amino]-2-hydroxy-cyclopentyl]methyl sulfamate or [(1R,2S,4R)-4-[[5-[5-chloro-4-[(1S)-7-fluoroisochroman-1-yl]thiophene-2-carbonyl]pyrimidin-4-yl]amino]-2-hydroxy-cyclopentyl]methyl sulfamate] | 99 | < 10
NS(=O)(=O)OC[C@H]1C[C@@H](Nc2ncncc2C(=O)c2cc([C@@H]3OCCc4ccc(F)cc43)c(Cl)s2)C[C@@H]1O (single isomer, unassigned) [I-294a, [(1R,2S,4R)-4-{[5-({5-chloro-4-[(1R)-7-fluoro-3,4-dihydro-1H-isochromen-1-yl]-2-thienyl}carbonyl)pyrimidin-4-yl]amino}-2-hydroxycyclopentyl]methyl sulfamate or [(1R,2S,4R)-4-{[5-({5-chloro-4-[(1S)-7-fluoro-3,4-dihydro-1H-isochromen-1-yl]-2-thienyl}carbonyl)pyrimidin-4-yl]amino}-2-hydroxycyclopentyl]methyl sulfamate] | 84 | 10 to 100
NS(=O)(=O)OC[C@H]1C[C@@H](Nc2ncncc2C(=O)c2cc([C@@H]3OCCc4ccc(F)cc43)c(Cl)s2)C[C@@H]1O (single isomer, unassigned) [I-294b, [(1R,2S,4R)-4-{[5-({5-chloro-4-[(1R)-7-fluoro-3,4-dihydro-1H-isochromen-1-yl]-2-thienyl}carbonyl)pyrimidin-4-yl]amino}-2-hydroxycyclopentyl]methyl sulfamate or [(1R,2S,4R)-4-{[5-({5-chloro-4-[(1S)-7-fluoro-3,4-dihydro-1H-isochromen-1-yl]-2-thienyl}carbonyl)pyrimidin-4-yl]amino}-2-hydroxycyclopentyl]methyl sulfamate] | 98 | < 10
Cc1sc(C(=O)c2cncnc2N[C@@H]2C[C@H](COS(N)(=O)=O)[C@@H](O)C2)cc1C1OCCc2ccc(C(F)(F)F)nc21 (single isomer, unassigned) [I-297a, [(1R,2S,4R)-2-hydroxy-4-{[5-({5-methyl-4-[(8S)-2-(trifluoromethyl)-5,8-dihydro-6H-pyrano[3,4-b]pyridin-8-yl]-2-thienyl}carbonyl)pyrimidin-4-yl]amino}cyclopentyl]methyl sulfamate or [(1R,2S,4R)-2-hydroxy-4-{[5-({5-methyl-4-[(8R)-2-(trifluoromethyl)-5,8-dihydro-6H-pyrano[3,4-b]pyridin-8-yl]-2-thienyl}carbonyl)pyrimidin-4-yl]amino}cyclopentyl]methyl sulfamate] | 31 | 100 to 1000
Cc1sc(C(=O)c2cncnc2N[C@@H]2C[C@H](COS(N)(=O)=O)[C@@H](O)C2)cc1C1OCCc2ccc(C(F)(F)F)nc21 (single isomer, unassigned) [I-297b, [(1R,2S,4R)-2-hydroxy-4-{[5-({5-methyl-4-[(8S)-2-(trifluoromethyl)-5,8-dihydro-6H-pyrano[3,4-b]pyridin-8-yl]-2-thienyl}carbonyl)pyrimidin-4-yl]amino}cyclopentyl]methyl sulfamate or [(1R,2S,4R)-2-hydroxy-4-{[5-({5-methyl-4-[(8R)-2-(trifluoromethyl)-5,8-dihydro-6H-pyrano[3,4-b]pyridin-8-yl]-2-thienyl}carbonyl)pyrimidin-4-yl]amino}cyclopentyl]methyl sulfamate] | 99 | < 10
Cc1sc(C(=O)c2cncnc2N[C@@H]2C[C@H](COS(N)(=O)=O)[C@@H](O)C2)cc1C1OCCc2oc(Cl)cc21 (single isomer, unassigned) [I-298a, [(1R,2S,4R)-4-{[5-({4-[(4R)-2-chloro-6,7-dihydro-4H-furo[3,2-c]pyran-4-yl]-5-methyl-2-thienyl}carbonyl)pyrimidin-4-yl]amino}-2-hydroxycyclopentyl]methyl sulfamate or [(1R,2S,4R)-4-{[5-({4-[(4S)-2-chloro-6,7-dihydro-4H-furo[3,2-c]pyran-4-yl]-5-methyl-2-thienyl}carbonyl)pyrimidin-4-yl]amino}-2-hydroxycyclopentyl]methyl sulfamate] | 34 | 100 to 1000
Cc1sc(C(=O)c2cncnc2N[C@@H]2C[C@H](COS(N)(=O)=O)[C@@H](O)C2)cc1C1OCCc2oc(Cl)cc21 (single isomer, unassigned) [I-298b, [(1R,2S,4R)-4-{[5-({4-[(4R)-2-chloro-6,7-dihydro-4H-furo[3,2-c]pyran-4-yl]-5-methyl-2-thienyl}carbonyl)pyrimidin-4-yl]amino}-2-hydroxycyclopentyl]methyl sulfamate or [(1R,2S,4R)-4-{[5-({4-[(4S)-2-chloro-6,7-dihydro-4H-furo[3,2-c]pyran-4-yl]-5-methyl-2-thienyl}carbonyl)pyrimidin-4-yl]amino}-2-hydroxycyclopentyl]methyl sulfamate] | 98 | < 10
NS(=O)(=O)OC[C@H]1C[C@@H](Nc2ncncc2C(=O)c2cc([C@@H]3NCCc4ccc(Cl)cc43)c(Cl)o2)C[C@@H]1O (single isomer, unassigned) [I-299a, {(1R,2S,4R)-4-[(5-{5-chloro-4-[(1R)-7-chloro-1,2,3,4-tetrahydroisoquinolin-1-yl]-2-furoyl}pyrimidin-4-yl)amino]-2-hydroxycyclopentyl}methyl sulfamate or {(1R,2S,4R)-4-[(5-{5-chloro-4-[(1S)-7-chloro-1,2,3,4-tetrahydroisoquinolin-1-yl]-2-furoyl}pyrimidin-4-yl)amino]-2-hydroxycyclopentyl}methyl sulfamate] | 101 | < 10
